Experimental findings from EP1447414B1, “Antagonist peptides of carcinoembryonic antigen (CEA)” (THE GOVERNMENT OF THE UNITED STATES OF AMERICA, as …, priority 1997, dated 2007) are described below.

No end group written: not given here.

This series has as its system CEA CTL T-Vac8. The series can be described thus: CTL cytotoxicity screening of the CAP1 analog panel, 111In release from peptide-incubated C1R-A2 cells. Type of series: cell-based, human. Conditions: peptide at 1, 0.1 and 0.01 µg/ml, E:T=1.45:1, isotope release after 4 hours.
For `CC[C@H](C)[C@H](NC(=O)[C@H](CC(N)=O)NC(=O)[C@H](C)NC(=O)CNC(=O)[C@H](CO)NC(=O)[C@H](CC(C)C)NC(=O)[C@@H](N)Cc1ccc(O)cc1)C(=O)N[C@@H](CC(N)=O)C(=O)N[C@@H](CC(C)C)C(=O)O` [CAP1-7I], the “activation of T-Vac8 cytotoxicity (lysis of peptide-incubated targets)” value (“activation of T-Vac8 cytotoxicity” for short) was “appeared to be active”.
The result for YLSGFNLNL [CAP1-5F] reads “provided stimulation, albeit at reduced levels compared to CAP1 itself”.
The result for YLSGACLNL [CAP1-6C] reads “activated T-Vac8 cytotoxicity and seemed to be equal to or better than CAP1”; that for `CC(C)C[C@H](NC(=O)[C@H](CC(N)=O)NC(=O)[C@H](CC(C)C)NC(=O)[C@H](CC(=O)O)NC(=O)[C@H](C)NC(=O)CNC(=O)[C@H](CO)NC(=O)[C@H](CC(C)C)NC(=O)[C@@H](N)Cc1ccc(O)cc1)C(=O)O` [CAP1-6D], “activated T-Vac8 cytotoxicity and seemed to be equal to or better than CAP1”.
In the case of YLSGSNLNL [CAP1-5S], the “activation of T-Vac8 cytotoxicity” value was “provided stimulation, albeit at reduced levels compared to CAP1 itself”.
On to YLSGINLNL [CAP1-5I], for which the “activation of T-Vac8 cytotoxicity” value is reported as “provided stimulation, albeit at reduced levels compared to CAP1 itself”.
